Experimental data as given in ChEMBL document CHEMBL1124788, “Conformation-activity relationship study of 5-HT3 receptor antagonists and a definition of a model for this receptor site” (J Med Chem, 1990).

Key:
[1] = molecular target: Serotonin 3 (5-HT3) receptor; type: protein-complex assay, Oryctolagus cuniculus
[2] = molecular target: Serotonin 3 (5-HT3) receptor; assay: Potency to 5-hydroxytryptamine 3 receptor entirely in guinea pig ileum; type: tissue-based, Cavia porcellus
[3] = molecular target: Serotonin 3 (5-HT3) receptor; assay: Potency at neuronal 5-hydroxytryptamine 3 receptors in the rabbit heart; type: protein-complex assay, Oryctolagus cuniculus
[4] = molecular target: T1, Serotonin 3 receptor (5HT3) (Mus musculus) (UniProt Q9JHJ5+P23979); assay: (§1) Potency at neuronal 5-hydroxytryptamine 3 receptor in the rabbit heart; type: protein assay
T1 sequence (P23979 whole entry, looked up): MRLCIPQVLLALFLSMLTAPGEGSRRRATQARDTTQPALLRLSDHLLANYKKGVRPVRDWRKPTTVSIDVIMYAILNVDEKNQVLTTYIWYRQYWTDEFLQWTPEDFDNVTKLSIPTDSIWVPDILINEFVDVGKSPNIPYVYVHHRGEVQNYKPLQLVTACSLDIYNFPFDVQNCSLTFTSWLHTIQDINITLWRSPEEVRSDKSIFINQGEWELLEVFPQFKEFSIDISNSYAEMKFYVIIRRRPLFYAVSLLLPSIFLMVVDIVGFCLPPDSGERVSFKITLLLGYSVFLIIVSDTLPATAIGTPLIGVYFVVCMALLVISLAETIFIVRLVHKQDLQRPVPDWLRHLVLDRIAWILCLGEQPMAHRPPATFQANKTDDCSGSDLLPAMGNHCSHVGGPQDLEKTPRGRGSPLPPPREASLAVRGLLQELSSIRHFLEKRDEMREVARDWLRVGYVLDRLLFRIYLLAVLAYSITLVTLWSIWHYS
T1 sequence (Q9JHJ5 whole entry, looked up): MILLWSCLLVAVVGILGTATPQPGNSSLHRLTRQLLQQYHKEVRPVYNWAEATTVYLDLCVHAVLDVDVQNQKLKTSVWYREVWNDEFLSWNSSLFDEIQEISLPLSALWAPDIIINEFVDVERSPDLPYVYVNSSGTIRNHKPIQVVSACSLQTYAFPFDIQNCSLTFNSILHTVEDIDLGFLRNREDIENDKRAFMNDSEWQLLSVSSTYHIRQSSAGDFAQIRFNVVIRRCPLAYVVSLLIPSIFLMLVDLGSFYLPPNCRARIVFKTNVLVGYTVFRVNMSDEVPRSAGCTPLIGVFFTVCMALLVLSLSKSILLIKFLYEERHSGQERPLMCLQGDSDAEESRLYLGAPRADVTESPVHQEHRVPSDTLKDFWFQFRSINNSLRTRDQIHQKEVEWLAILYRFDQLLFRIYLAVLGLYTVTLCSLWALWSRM

[5] = molecular target: Serotonin 3 (5-HT3) receptor; assay: as §1; type: protein-complex assay, Oryctolagus cuniculus
[6] = molecular target: T1, Serotonin 3 receptor (5HT3) (Mus musculus); assay: Binding affinity towards 5-hydroxytryptamine 3 receptor was determined by using [3H]-ICS 205-930 as radioligand in mouse N1E 115 cells; type: cell-based
[7] = molecular target: T2, Serotonin 3 (5-HT3) receptor (Rattus norvegicus, UniProt P35563+Q9JJ16); assay: Binding affinity to 5-hydroxytryptamine 3 receptor using [3H]GR-65630 as radioligand in rat cortex
T2 sequence (P35563 whole entry): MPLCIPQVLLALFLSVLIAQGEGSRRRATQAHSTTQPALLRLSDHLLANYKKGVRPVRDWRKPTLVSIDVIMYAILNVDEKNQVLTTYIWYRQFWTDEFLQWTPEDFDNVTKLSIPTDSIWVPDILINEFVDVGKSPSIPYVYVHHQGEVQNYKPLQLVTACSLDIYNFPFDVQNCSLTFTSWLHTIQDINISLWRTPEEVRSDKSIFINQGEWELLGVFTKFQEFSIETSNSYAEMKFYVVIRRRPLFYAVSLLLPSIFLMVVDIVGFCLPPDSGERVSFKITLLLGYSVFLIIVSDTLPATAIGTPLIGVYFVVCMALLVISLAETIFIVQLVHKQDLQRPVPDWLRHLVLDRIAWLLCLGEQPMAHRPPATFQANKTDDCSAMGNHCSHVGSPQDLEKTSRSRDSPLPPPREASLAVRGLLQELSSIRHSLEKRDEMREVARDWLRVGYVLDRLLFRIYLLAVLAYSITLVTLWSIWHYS
T2 sequence (Q9JJ16 whole entry): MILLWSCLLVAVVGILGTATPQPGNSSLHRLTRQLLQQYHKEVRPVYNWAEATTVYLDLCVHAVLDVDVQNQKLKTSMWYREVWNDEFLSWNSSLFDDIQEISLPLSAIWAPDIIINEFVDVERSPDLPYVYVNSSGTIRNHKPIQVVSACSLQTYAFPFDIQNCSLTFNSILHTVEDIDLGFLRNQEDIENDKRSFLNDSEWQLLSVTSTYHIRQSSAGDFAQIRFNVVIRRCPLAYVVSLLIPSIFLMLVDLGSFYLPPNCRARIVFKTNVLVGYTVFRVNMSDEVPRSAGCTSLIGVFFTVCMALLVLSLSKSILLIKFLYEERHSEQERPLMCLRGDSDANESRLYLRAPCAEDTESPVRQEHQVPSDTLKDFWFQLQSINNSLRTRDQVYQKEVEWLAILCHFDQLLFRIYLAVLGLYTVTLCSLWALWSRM

[8] = molecular target: T2, Serotonin 3 (5-HT3) receptor; assay: Binding affinity to 5-hydroxytryptamine 3 receptor using [3H]quipazine as radioligand in rat cortex
[9] = molecular target: Serotonin 3 (5-HT3) receptor; assay: Potency to 5-hydroxytryptamine 3 receptor using [3H]GR-65630 as radioligand in rat cortex

With COc1cc(N)c(Cl)cc1C(=O)N[C@H]1CCN2CCC[C@@H]1C2 as the compound, how does the pA2 [1] read?
The pA2 was 8.5.

And the pA2 [2]?
Its pA2 is 7.6.

And the pA2 [3]?
The pA2 was 8.9.

With CN1C2CCC1CC(OC(=O)c1cn(C)c3ccc(F)cc13)C2 (stereo not given) as the compound, how does the pKD [4] read?
Its pKD is 9.8.

Which pA2 [3] does the source give for CN1CC(=O)C2CCC(OC(=O)c3c[nH]c4ccccc34)C1C2 (stereo not given) here?
Its pA2 is 9.8.

Cc1cc(C)cc(C(=O)OC2CC3CCC(C2)N3C)c1 (stereo not given) was tested. Which pA2 [5] did it give?
The pA2 was 9.

With O=C(OC1CC2CCC(C1)N2)c1c[nH]c2ccccc12 (stereo not given) as the compound, how does the pKD [6] read?
Its pKD is 9.14.

Which pA2 [3] does the source give for O=C(c1c[nH]c2ccccc12)C1CCNCC1 here?
The pA2 was 8.3.

Which pKD [6] does the source give for CN1[C@@H]2CC[C@H]1C[C@@H](OC(=O)c1cc(Cl)cc(Cl)c1)C2 [BEMESETRON] here?
The pKD was 8.21.

What about the Ki [7] of the same compound?
The Ki was 55 nM.

Which pKD [6] does the source give for Cc1nccn1CC1CCc2c(c3ccccc3n2C)C1=O (stereo not given) here?
The pKD was 7.9.

What does the source list for CCN(CC)CCNC(=O)c1cc(Cl)c(N)cc1OC [METOCLOPRAMIDE]?
Ki [8]: 229 nM; pA2 [3]: 7.3; pKD [6]: 6.65; Ki [7]: 200 nM

With C[N+]1(C)CCC(C(=O)c2c[nH]c3ccccc23)CC1.[I-] as the compound, how does the pA2 [3] read?
The pA2 was 9.2.

How did the pA2 [5] turn out when COC(=O)[C@@H]1C2CCC(C[C@@H]1OC(=O)c1ccccc1)N2 (stereo not given in full) was run?
The pA2 was 7.7.

For Cc1[nH]cnc1CCC(=O)c1cn(C)c2ccccc12, which “Log Ki” value [9] is on record?
The value was -8.79.

Which Ki [8] does the source give for c1ccc2nc(N3CCNCC3)ccc2c1 [QUIPAZINE] here?
Its Ki is 1 nM.

And the pKD [6]?
Its pKD is 8.69.

And the Ki [7]?
The Ki was 1.41 nM.

For CN1[C@@H]2CC[C@H]1C[C@H](OC(=O)c1ccccc1)C2, which pA2 [5] is on record?
Its pA2 is 7.2.

Which results are given for CN1[C@@H]2CC[C@H]1C[C@@H](OC(=O)c1c[nH]c3ccccc13)C2 [TROPISETRON]?
Ki [8]: 0.603 nM; pKD [6]: 9.09; Ki [7]: 3.16 nM
